# From patent US7482461B2, “Sulfonyl-3-heterocyclylindazole derivatives as 5-hydroxytryptamine-6 ligands” (Wyeth, priority 2006, dated 2009)
# Where a name gives a salt, the structure may show the parent alone.
# Biological target: human cloned 5-HT6 receptors (Homo sapiens, UniProt P50406)
# Sequence (P50406 whole entry): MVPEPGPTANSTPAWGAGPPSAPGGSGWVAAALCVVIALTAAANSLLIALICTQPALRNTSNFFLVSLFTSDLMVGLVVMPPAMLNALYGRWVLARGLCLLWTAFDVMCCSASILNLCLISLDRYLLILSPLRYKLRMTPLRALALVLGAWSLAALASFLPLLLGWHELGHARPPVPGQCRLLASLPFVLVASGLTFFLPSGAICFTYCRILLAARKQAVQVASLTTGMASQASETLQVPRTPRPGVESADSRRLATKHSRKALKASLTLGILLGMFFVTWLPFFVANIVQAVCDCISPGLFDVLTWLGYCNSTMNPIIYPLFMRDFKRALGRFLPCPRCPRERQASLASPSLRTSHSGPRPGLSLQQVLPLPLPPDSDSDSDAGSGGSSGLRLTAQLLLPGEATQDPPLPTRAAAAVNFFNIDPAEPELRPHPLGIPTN
row,Ki,SMILES
1,3.8 nM,"CN1CCC(c2n[nH]c3ccc(S(=O)(=O)c4cccc5ccccc45)cc23)CC1 [Example 4, 3-(1-Methylpiperidin-4-yl)-5-(1-naphthylsulfonyl)-1H-indazole hydrochloride]"
2,55 nM,"CN1CCC(c2n[nH]c3ccc(S(=O)(=O)c4ccccc4)cc23)CC1 [Example 5, 3-(1-methylpiperidin-4-yl)-5-(phenylsulfonyl)-1H-indazole]"
3,93 nM,"CN1CCC(c2n[nH]c3ccc(S(=O)(=O)c4cccc(F)c4)cc23)CC1 [Example 6, 5-[(3-fluorophenyl)sulfonyl]-3-(1-methylpiperidin-4-yl)-1H-indazole]"
4,19 nM,"CN1CCC(c2n[nH]c3ccc(S(=O)(=O)c4cccc(Cl)c4)cc23)CC1 [Example 7, 5-[(3-chlorophenyl)sulfonyl]-3-(1-methylpiperidin-4-yl)-1H-indazole]"
5,66 nM,"CN1CCC(c2n[nH]c3ccc(S(=O)(=O)c4ccc(F)cc4)cc23)CC1 [Example 8, 5-[(4-fluorophenyl)sulfonyl]-3-(1-methylpiperidin-4-yl)-1H-indazole]"
6,50 nM,"Cc1cccc(S(=O)(=O)c2ccc3[nH]nc(C4CCN(C)CC4)c3c2)c1 [Example 9, 5-[(3-methylphenyl)sulfonyl]-3-(1-methylpiperidin-4-yl)-1H-indazole]"
7,46 nM,"CN1CCC(c2n[nH]c3ccc(S(=O)(=O)c4ccc(C(F)(F)F)cc4)cc23)CC1 [Example 10, 3-(1-methylpiperidin-4-yl)-5-{[4-(trifluoromethyl)phenyl]sulfonyl}-1H-indazole]"
8,48 nM,"CN1CCC(c2n[nH]c3ccc(S(=O)(=O)c4ccc(OC(F)(F)F)cc4)cc23)CC1 [Example 11, 3-(1-methylpiperidin-4-yl)-5-{[4-(trifluoromethoxy)phenyl]sulfonyl}-1H-indazole]"
9,14 nM,"CC(C)c1ccc(S(=O)(=O)c2ccc3[nH]nc(C4CCN(C)CC4)c3c2)cc1 [Example 12, 5-[4-(isopropylphenyl)sulfonyl]-3-(1-methylpiperidin-4-yl)-1H-indazole]"
10,9.6 nM,"CN1CCC(c2n[nH]c3ccc(S(=O)(=O)c4ccc5ccccc5c4)cc23)CC1 [Example 13, 3-(1-methylpiperidin-4-yl)-5-(2-naphthylsulfonyl)-1H-indazole]"
11,123 nM,COc1ccc(S(=O)(=O)c2ccc3[nH]nc(C4CCN(C)CC4)c3c2)cc1 [Example 14]
